Source: the Bradley open melting point set (2014)
Where “and” joins values, the source holds several entries; their conditions need not be identical. Identical values can stand only once.

Compound | melting point
Cc1cc(F)ccc1B(O)O [4-fluoro-2-methylbenzeneboronic acid] | 200 °C
Cc1cc(F)ccc1O [4-fluoro-2-methylphenol] | 34 °C
Nc1ccc(F)cc1[N+](=O)[O-] [4-fluoro-2-nitroaniline] | 92 °C
O=Cc1cc(B(O)O)ccc1F [4-fluoro-3-formylbenzeneboronic acid] | 240 °C
Cc1cc(B(O)O)ccc1F [4-fluoro-3-methylbenzeneboronic acid] | 210 °C
O=C(O)c1ccc(F)cc1 [4-fluorobenzoic acid] [listing 1 of 2 here] | 185 °C
O=C(O)c1ccc(F)cc1 [4-fluorobenzoic acid] [listing 2 of 2 here] | 185 °C
O=C(O)/C=C/c1ccc(F)cc1 [4-fluorocinnamic acid] | 209 °C
Oc1ccc(F)cc1 [4-fluorophenol] [listing 1 of 2 here] | 46.5 °C
Oc1ccc(F)cc1 [4-fluorophenol] [listing 2 of 2 here] | 46 °C
CCCC(=O)CCC [4-heptanone] | -33 °C
Oc1cccc2[nH]nnc12 [4-hydroxy-1h-benzotriazole] | 222 °C
Cc1cc(C=O)cc(C)c1O [4-hydroxy-3,5-dimethylbenzaldehyde] | 114 °C
O=Cc1ccc(O)cc1 [4-hydroxybenzaldehyde] | 118 °C
O=C(O)c1ccc(O)cc1 [4-hydroxybenzoic_acid] | 217 °C
OCc1ccc(O)cc1 [4-hydroxybenzyl alcohol] | 118 °C
N#CCc1ccc(O)cc1 [4-hydroxybenzyl_cyanide] | 71 °C
O=C(/C=C/c1ccc(O)cc1)c1ccccc1 [4-hydroxychalcone] | 184 °C
Oc1cccc2[nH]ccc12 [4-hydroxyindole] | 98 °C

Compound | melting point
NC(=O)Cc1ccc(O)cc1 [4-hydroxyphenylacetamide] | 174 °C
N#CCc1ccc(O)cc1 [4-hydroxyphenylacetonitrile] | 69 °C
Nc1ccc(I)cc1 [4-iodoaniline] | 63 °C
Ic1ccc(-c2ccccc2)cc1 [4-iodobiphenyl] | 114 °C
Oc1ccc(I)cc1 [4-iodophenol] | 93 °C
CC(C)Cc1ccc(C(C)C(=O)O)cc1 (stereo not drawn) [4-isobutyl-alpha-methylphenylacetic acid] | 77 °C
CC(C)c1ccc(/C=C/[N+](=O)[O-])cc1 [4-isopropyl-beta-nitrostyrene] | 37 °C
CC(C)c1ccc(O)cc1 [4-isopropylphenol] | 60 °C
COc1ccc(B(O)O)c(C)c1 [4-methoxy-2-methylbenzeneboronic acid] | 191 °C
CCCCCCCCOc1ccc(NC(=O)c2ccc(OC)cc2)cc1 [4-methoxy-N-[4-(octyloxy)phenyl]benzamide] | 153 °C
COc1ccc(B(O)O)cc1 [4-methoxybenzeneboronic acid] | 205 °C
COc1ccc(S(N)(=O)=O)cc1 [4-methoxybenzenesulfonamide] | 112 °C
COc1ccc(S(=O)(=O)Cl)cc1 [4-methoxybenzenesulfonyl chloride] | 40 °C
COc1ccc(C(=O)O)cc1 [4-methoxybenzoic acid] | 185 °C
COc1ccc(C(=O)Cl)cc1 [4-methoxybenzoyl chloride] | 22 °C
COc1ccc(-c2ccccc2)cc1 [4-methoxybiphenyl] | 91 °C
COc1ccc(O)cc1 [4-methoxyphenol] | 56 °C and 57 °C
COc1ccc(OCC(=O)O)cc1 [4-methoxyphenoxyacetic acid] | 111 °C
COc1ccc(N=C=S)cc1 [4-methoxyphenyl isothiocyanate] | 19 °C

Compound | melting point
COc1ccc(/C=C/c2ccccc2)cc1 [4-methoxystilbene] | 137 °C
C=CCC(C)C [4-methyl-1-pentene] | -153 °C
CC(C)CC=CB(O)O [4-methyl-1-pentenylboronic acid] | 101 °C
Cc1ccc(N)c([N+](=O)[O-])c1 [4-methyl-2-nitroaniline] | 117 °C
Cc1ccc(B(O)O)cc1[N+](=O)[O-] [4-methyl-3-nitrobenzeneboronic acid] | 250 °C
Cc1ccc(S(=O)(=O)Cl)cc1[N+](=O)[O-] [4-methyl-3-nitrobenzenesulfonyl chloride] | 35 °C
Cc1ccc(B(O)O)cc1 [4-methylbenzeneboronic acid] | 250 °C
Cc1ccc(C(=O)c2ccccc2)cc1 [4-methylbenzophenone] | 55 °C
Cc1ccc(CCl)cc1 [4-methylbenzyl chloride] | 5 °C
Cc1cc[n+]([O-])cc1C(N)=O [4-methylpyridine-3-carboxamide 1-oxide] | 280 °C
CCCCCCCCCc1ccc(O)cc1 [4-n-nonylphenol] | 45 °C
O=[N+]([O-])c1ccc(CCl)cc1 [4-nitrobenzyl_chloride] | 73 °C
O=[N+]([O-])c1cc[n+]([O-])c2ccccc12 [4-nitroquinoline n-oxide] | 155 °C
Cc1ccc([N+](=O)[O-])cc1 [4-nitrotoluene] [listing 1 of 2 here] | 52 °C
Cc1ccc([N+](=O)[O-])cc1 [4-nitrotoluene] [listing 2 of 2 here] | 53 °C
O=Cc1ccc(Oc2ccccc2)cc1 [4-phenoxybenzaldehyde] | 25 °C
c1ccc(C23CCN(CC2)CC3)cc1 [4-phenylquinuclidine] | 124 °C
CCC1(CC)C(=O)NC(=O)NC1=O [5,5-diethylbarbiturate] | 190 °C
O=C(O)c1cc(Cl)c([N+](=O)[O-])cc1[N+](=O)[O-] [5-chloro-2,4-dinitrobenzoic acid] | 181 °C

Now from value to compound:

melting point | Compound
-34 °C | C=Cc1ccc(C)cc1 [4-methylstyrene]
105 °C | CCCCc1ccc(B(O)O)cc1 [4-n-butylbenzeneboronic acid]
53 °C | CCCCCCCCCCc1ccc(-c2ccccc2)cc1 [4-n-decylbiphenyl]
97 °C | CCCCCCCCCCOc1ccc(C(=O)O)cc1 [4-n-decyloxybenzoic acid]
10 °C | CCCCCc1ccc(-c2ccccc2)cc1 [4-n-pentylbiphenyl]
86 °C | O=[N+]([O-])c1ccc(C2OCCO2)cc1 [4-nitrobenzaldehyde ethylene glycol acetal]
94 °C | O=[N+]([O-])c1ccc2c(c1)OCCOCCOCCOCCO2 [4-nitrobenzo-15-crown-5]
242 °C | O=C(O)c1ccc([N+](=O)[O-])cc1 [4-nitrobenzoic acid] [listing 1 of 2 here]
240 °C | O=C(O)c1ccc([N+](=O)[O-])cc1 [4-nitrobenzoic acid] [listing 2 of 2 here]
154 °C | O=C(O)Cc1ccc([N+](=O)[O-])cc1 [4-nitrophenylacetic acid]
163 °C | O=C(O)c1ccc([N+](=O)[O-])cc1C(=O)O [4-nitrophthalic acid]
119 °C | O=C(O)CCC(=O)c1cccs1 [4-oxo-4-(2-thienyl)butyric acid]
84 °C | Nc1ccc(Oc2ccccc2)cc1 [4-phenoxyaniline]
84 °C | Oc1ccc(Oc2ccccc2)cc1 [4-phenoxyphenol]
22 °C | CCCc1ccc(O)cc1 [4-propylphenol]
54 °C | OCc1ccncc1 [4-pyridinemethanol]
16 °C | CC(C)(C)c1ccc(N)cc1 [4-tert-butylaniline]
49 °C | CC(C)(C)C1CCC(=O)CC1 [4-tert-butylcyclohexanone]
-63 °C | Cc1ccc(C(C)(C)C)cc1 [4-tert-butyltoluene]
281 °C | Oc1ccc(C(c2ccccc2)(c2ccccc2)c2ccccc2)cc1 [4-tritylphenol]
190 °C | C=Cc1ccc(B(O)O)cc1 [4-vinylbenzeneboronic acid]

melting point | Compound
322 °C | Nn1c(S)nnc1-c1ccc(Cl)cc1 [4H-1,2,4-triazole-3-thiol, 4-amino-5-(4-chlorophenyl)-]
116 °C | c1cc2c3c(c1)ccc1cccc(c13)C2 [4H-Cyclopenta[def]phenanthrene]
148 °C | CC1(C)CC(=O)CC(=O)C1 [5,5-Dimethylcyclohexane-1,3-dione]
62 °C | Oc1ccc2c(c1)CCCC2 [5,6,7,8-tetrahydro-2-naphthol]
225 °C | COc1ccc(-c2cc(=O)c3c(O)c(OC)c(O)cc3o2)cc1 [5,7-Dihydroxy-6-methoxy-2-(4-methoxyphenyl)-4H-chromen-4-one]
155 °C | COc1ccccc1-c1nnn[nH]1 [5-(2-methoxyphenyl)-1h-tetrazole]
153 °C | Cc1ccccc1-c1nnn[nH]1 [5-(2-methylphenyl)-1h-tetrazole]
201 °C | COc1cc(Cc2cnc(N)nc2N)cc(OC)c1OC [5-(3,4,5-Trimethoxybenzyl)pyrimidine-2,4-diamine]
145 °C | Cc1cccc(-c2nnn[nH]2)c1 [5-(3-methylphenyl)-1h-tetrazole]
237 °C | COc1ccc(-c2nnn[nH]2)cc1 [5-(4-methoxyphenyl)-1h-tetrazole]
119 °C | Nc1cc(Cl)ccc1[N+](=O)[O-] [5-Chlor-2-nitroanilin]
283 °C | Oc1ncc(F)c(O)n1 [5-Fluorouracil]
181 °C | O=C1NC(=O)c2cc([N+](=O)[O-])ccc21 [5-Nitro-1H-isoindole-1,3(2H)-dione]
145 °C | CC(=O)c1ccc(B(O)O)s1 [5-acetylthiophene-2-boronic acid]
127 °C | Cn1nc(-c2ccccc2)cc1N [5-amino-1-methyl-3-phenyl-1h-pyrazole]
79 °C | COc1cc(Br)cc(OC)c1OC [5-bromo-1,2,3-trimethoxybenzene]
154 °C | O=C(O)c1cc(Br)ccc1Cl [5-bromo-2-chlorobenzoic_acid]
110 °C | O=C(c1ccccc1)c1cc(Br)ccc1O [5-bromo-2-hydroxybenzophenone]
121 °C | N#Cc1cc(Br)ccc1I [5-bromo-2-iodobenzonitrile]
40 °C | O=C(O)CCCCBr [5-bromovaleric acid]
59 °C | Cc1cc(Cl)cc(C=O)c1O [5-chloro-2-hydroxy-3-methylbenzaldehyde]
